In patent publication US8664230B2, “Pyridopyrimidine derivatives and use thereof” (The Asan Foundation, priority 2011, dated 2014):

Legend:
Assay in all cases: PI3 Kinase Activity/Inhibitor Assay (Millipore kit, competitive ELISA)
Format in all cases: biochemical
[1] = target: PI3Kα (Homo sapiens (Human), UniProt P42336)
Source text: (§1) The PI3 Kinase Activity/Inhibitor Assay Kit was purchased from Millipore. The dimethylsulfoxide was purchased from Sigma-Aldrich.
(§2) The PI3 Kinase Activity/Inhibitor Assay is a competitive assay used for the fast and sensitive quantitation of activity of the four class I PI3 kinases (p110 α, β, γ, δ). The PI3 Kinase Activity/Inhibitor Assay works on the principle that PI3 Kinase phosphorylates P1(3,4)P2 (PIP2), converting it to PI(3,4,5)P3 (PIP3). The PH domain of the protein GRP-1 binds PIP3 with high affinity and specificity. The kit includes this recombinant protein that is used as the capture protein. This protein binds to the glutathione plate and captures either the PIP3 generated as part of the kinase reaction or the biotinylated-PIP3 tracer included in the kit. The captured biotinylated-PIP3 is detected using streptavidin-HRP conjugate and a colorimetric read out (OD 450). The lower the signal, the higher the PI3 Kinase activity.
(§3) PI3-Kinase included in the Kit was diluted at the ratio of 1:10 with distilled water and stored on ice. The compound was prepared by diluting the stock compound to 100× of the final concentration and then diluted again at the ratio of 1:50 to make 2× of the final concentration with distilled water.
(§4) The prepared PI3-Kinase (5 μL/well) and the compound (5 μL/well) were added to Glutathione-Coated Plate and pre-incubated at room temperature for 10 minutes. After adding 5 μL of 5× Kinase reaction buffer per well, PIP2 was diluted at the ratio of 1:20 with distilled water and 5 μL were added into each well. Distilled water was added up to 25 μL, and the reaction mixture was incubated at room temperature for an hour. Biotinylated-PIP3 was diluted at the ratio of 1:18 with 1×TBS solution and 25 μL of the mixture were put in each well excluding the buffer control well. GRP1-GST was diluted at the ratio of 1:1000 with 1×TBS solution and 50 μL of it was added to every well. The mixture was incubated at room temperature for an hour.
(§5) After removing the solution contained in the wells, the wells were washed 4 times with 200 μL of 1×TBST. SA-HRP was diluted at the ratio of 1:2000 with 1×TBST, then 50 μL of it was added into every well and incubated at room temperature for an hour. Again after removing the solution, they were washed 5 times by adding 200 μL of 1×TBST to each well. 100 μL of TMB solution was added to every well. The plate was developed in the dark for 5-20 minutes. As blue color appeared, the reaction was stopped by adding 100 μL of stop solution to every well, and the plate was read at 450 nm with ELISA Reader (TECAN).
(§6) For the calculation of relative percentage to biotinylated-PIP3, we take the direct absorbance at 450 nm (A450) and set the positive Biotinylated-PIP3 wells as 100 percentage. All the other signals are divided by the Biotinylated-PIP3 average, and multiplied by 100 to show the relative percentage to the positive signal. Relative % to B-PIP3=(A450 of samples include buffer, kinase & inhibitors/A450 of Biotinylated-PIP3 average)×100
(§7) IC50 values were calculated from the values read at 450 nm by using Graphpad Prism 5 software.

[2] = target: PI3Kγ (Homo sapiens (Human), UniProt P48736)
PI3Kγ, sequence (P48736 whole entry, species assumed): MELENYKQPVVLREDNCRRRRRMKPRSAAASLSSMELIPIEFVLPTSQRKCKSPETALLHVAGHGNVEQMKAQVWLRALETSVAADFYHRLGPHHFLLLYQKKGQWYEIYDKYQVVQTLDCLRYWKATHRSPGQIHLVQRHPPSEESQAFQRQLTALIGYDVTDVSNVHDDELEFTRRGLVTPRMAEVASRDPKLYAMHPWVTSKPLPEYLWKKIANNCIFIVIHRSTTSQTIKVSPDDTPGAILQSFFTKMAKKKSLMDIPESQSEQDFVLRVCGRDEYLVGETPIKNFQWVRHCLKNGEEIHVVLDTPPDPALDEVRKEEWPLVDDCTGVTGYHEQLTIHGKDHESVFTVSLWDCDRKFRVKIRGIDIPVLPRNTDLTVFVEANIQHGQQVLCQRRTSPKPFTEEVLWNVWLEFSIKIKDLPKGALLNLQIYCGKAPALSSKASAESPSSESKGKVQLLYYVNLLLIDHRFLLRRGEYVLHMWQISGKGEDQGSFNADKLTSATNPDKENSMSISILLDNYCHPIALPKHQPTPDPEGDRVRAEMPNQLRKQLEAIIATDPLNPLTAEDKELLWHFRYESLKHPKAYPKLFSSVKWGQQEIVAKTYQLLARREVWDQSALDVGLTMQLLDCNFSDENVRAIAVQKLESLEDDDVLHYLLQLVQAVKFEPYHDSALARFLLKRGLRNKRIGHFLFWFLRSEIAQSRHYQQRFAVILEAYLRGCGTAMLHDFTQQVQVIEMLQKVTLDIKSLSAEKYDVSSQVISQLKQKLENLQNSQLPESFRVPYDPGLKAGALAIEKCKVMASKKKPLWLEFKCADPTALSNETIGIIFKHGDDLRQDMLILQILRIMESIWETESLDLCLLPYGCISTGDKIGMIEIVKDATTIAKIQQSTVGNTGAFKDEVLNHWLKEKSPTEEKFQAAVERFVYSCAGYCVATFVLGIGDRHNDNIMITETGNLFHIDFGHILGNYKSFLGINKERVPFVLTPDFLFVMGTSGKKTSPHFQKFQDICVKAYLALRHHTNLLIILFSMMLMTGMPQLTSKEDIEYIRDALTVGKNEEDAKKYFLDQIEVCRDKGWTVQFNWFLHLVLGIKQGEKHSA
Source text: as §1, §2, §3, §4, §5, §6, §7

[3] = target: PI3Kδ (Homo sapiens (Human), UniProt O00329)
PI3Kδ, sequence (O00329 whole entry, species assumed): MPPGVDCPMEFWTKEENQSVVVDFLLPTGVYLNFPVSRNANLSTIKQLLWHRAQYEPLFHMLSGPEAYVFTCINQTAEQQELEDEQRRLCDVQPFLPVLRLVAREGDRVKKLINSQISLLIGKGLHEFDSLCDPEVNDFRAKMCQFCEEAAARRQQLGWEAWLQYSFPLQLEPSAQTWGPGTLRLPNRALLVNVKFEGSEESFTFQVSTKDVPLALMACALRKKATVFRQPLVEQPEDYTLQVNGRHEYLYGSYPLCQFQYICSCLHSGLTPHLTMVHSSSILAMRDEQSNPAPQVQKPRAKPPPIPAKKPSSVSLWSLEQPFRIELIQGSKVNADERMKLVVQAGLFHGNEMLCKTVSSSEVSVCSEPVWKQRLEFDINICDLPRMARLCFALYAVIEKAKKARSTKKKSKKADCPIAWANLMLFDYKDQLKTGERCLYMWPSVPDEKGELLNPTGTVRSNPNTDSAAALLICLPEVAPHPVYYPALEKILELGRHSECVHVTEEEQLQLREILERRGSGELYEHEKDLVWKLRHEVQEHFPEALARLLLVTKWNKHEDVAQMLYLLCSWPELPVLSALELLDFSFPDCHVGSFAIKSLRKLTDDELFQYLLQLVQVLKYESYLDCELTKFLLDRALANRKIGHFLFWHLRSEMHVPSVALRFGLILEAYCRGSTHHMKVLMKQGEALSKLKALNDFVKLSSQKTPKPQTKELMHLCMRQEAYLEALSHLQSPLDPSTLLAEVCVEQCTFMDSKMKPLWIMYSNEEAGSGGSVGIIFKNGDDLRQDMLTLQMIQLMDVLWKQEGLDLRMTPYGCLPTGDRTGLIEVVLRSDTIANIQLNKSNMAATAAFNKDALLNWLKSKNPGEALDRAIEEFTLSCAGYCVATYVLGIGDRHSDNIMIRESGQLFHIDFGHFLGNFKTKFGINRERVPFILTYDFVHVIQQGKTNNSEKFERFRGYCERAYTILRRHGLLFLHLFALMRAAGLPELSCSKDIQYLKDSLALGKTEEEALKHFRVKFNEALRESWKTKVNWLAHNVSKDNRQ
PI3Kδ, sequence (P27986 whole entry partner, species assumed): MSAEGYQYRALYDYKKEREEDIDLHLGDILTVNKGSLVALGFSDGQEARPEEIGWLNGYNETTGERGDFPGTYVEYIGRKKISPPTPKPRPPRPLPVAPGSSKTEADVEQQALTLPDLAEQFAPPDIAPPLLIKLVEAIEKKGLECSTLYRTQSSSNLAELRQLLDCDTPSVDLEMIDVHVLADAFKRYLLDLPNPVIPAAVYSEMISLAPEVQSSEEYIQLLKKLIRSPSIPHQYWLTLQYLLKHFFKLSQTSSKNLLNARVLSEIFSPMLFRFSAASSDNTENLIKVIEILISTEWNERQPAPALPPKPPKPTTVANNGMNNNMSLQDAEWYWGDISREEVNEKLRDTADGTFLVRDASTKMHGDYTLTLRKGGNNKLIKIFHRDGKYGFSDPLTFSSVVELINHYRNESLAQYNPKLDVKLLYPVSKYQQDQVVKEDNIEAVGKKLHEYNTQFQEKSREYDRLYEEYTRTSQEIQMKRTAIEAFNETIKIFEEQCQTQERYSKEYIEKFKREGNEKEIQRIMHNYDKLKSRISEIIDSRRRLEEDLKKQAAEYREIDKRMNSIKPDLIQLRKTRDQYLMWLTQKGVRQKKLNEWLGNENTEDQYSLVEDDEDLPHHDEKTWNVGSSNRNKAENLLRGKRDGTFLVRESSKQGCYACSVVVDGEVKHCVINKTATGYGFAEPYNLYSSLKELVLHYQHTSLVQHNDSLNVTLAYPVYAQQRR
Source text: as §1, §2, §3, §4, §5, §6, §7

PI3Kα, sequence (P42336 whole entry, looked up, species assumed): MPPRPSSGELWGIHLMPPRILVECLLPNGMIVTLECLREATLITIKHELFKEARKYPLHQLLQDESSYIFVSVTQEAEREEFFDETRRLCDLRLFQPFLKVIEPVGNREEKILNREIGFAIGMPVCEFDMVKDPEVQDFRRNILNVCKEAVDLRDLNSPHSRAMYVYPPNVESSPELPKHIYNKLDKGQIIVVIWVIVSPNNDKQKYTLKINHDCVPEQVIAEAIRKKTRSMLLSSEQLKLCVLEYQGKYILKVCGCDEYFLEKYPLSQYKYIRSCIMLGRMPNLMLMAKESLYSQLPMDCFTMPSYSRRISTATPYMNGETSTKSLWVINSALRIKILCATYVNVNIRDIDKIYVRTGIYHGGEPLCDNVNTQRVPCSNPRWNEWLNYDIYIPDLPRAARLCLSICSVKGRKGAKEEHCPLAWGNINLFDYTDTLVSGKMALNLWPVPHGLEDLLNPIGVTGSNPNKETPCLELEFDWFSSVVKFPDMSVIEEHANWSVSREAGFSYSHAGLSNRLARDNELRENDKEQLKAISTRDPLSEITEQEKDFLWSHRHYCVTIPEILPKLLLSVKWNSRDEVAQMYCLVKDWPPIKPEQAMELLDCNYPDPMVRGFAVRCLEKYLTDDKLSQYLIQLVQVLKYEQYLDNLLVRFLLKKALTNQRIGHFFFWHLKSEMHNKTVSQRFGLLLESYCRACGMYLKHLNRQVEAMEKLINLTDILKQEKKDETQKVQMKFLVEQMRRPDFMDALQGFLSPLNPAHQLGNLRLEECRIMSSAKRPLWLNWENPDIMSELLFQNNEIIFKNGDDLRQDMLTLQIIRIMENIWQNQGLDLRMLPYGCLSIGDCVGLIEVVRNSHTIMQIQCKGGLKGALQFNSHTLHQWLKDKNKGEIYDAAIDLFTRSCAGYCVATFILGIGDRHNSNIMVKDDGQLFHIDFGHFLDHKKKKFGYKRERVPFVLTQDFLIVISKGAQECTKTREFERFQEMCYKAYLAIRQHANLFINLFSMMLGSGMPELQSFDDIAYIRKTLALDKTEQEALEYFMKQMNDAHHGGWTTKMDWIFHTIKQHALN
PI3Kα, sequence (P27986 whole entry partner, looked up, species assumed): as the sequence (P27986 whole entry partner, species assumed) above

| IC50 [1] [µM] | IC50 [2] [µM] | IC50 [3] [µM] | SMILES |
| --- | --- | --- | --- |
| < 1 | < 10 | < 1 | CN1CCC(Oc2ncnc3ccc(-c4cnc(Cl)c(NS(=O)(=O)c5ccc(F)cc5F)c4)nc23)CC1 |
| < 10 | < 10 | < 10 | CN1CCC(Oc2ncnc3ccc(-c4cncc(NS(=O)(=O)c5ccccc5)c4)nc23)CC1 |
| < 10 | < 10 | < 10 | O=S(=O)(Nc1cc(-c2ccc3ncnc(NC4CCOCC4)c3n2)cnc1Cl)c1ccc(F)cc1F |

Continued, compound first:

| SMILES | IC50 [1] [µM] | IC50 [2] [µM] | IC50 [3] [µM] |
| --- | --- | --- | --- |
| O=S(=O)(Nc1cncc(-c2ccc3ncnc(Oc4cccnc4)c3n2)c1)c1ccccc1 | < 10 | < 1 | < 10 |
| O=S(=O)(Nc1cncc(-c2ccc3ncnc(OC4CCOCC4)c3n2)c1)c1ccccc1 | < 10 | < 1 | < 10 |
| O=S(=O)(Nc1cc(-c2ccc3ncnc(OC4CCOCC4)c3n2)cnc1Cl)c1ccc(F)cc1F | < 1 | < 1 | < 1 |
